Reference: ChEMBL document CHEMBL1201862, “PubChem BioAssay data set” (2004)
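Dose response: 5 concentrations. Exposure: 48 h. Format: 96-well plates. Endpoint: linear interpolation; highest concentration if not reached. GI50 is the concentration that inhibits growth by half.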 Calls of active or inactive are those of the source. Cut-off read from the data, not from the text of the source: active = GI50 up to about 1.1 µM and inactive = higher.

Columns and labels:
Assay in all cases: DTP human tumour cell line panel, 48 h
[1] = test system: 786-0
[2] = test system: A498
[3] = test system: A549
[4] = test system: ACHN
[5] = test system: BT-549
[6] = test system: CAKI-1
[7] = test system: CCRF-CEM
[8] = test system: COLO 205
[9] = test system: DU-145
[10] = test system: EKVX
[11] = test system: HCC 2998
[12] = test system: HCT-116
[13] = test system: HCT-15
[14] = test system: HL-60
[15] = test system: HOP-62
[16] = test system: HOP-92
[17] = test system: HT-29
[18] = test system: Hs-578T
[19] = test system: IGROV-1
[20] = test system: K562
[21] = test system: KM12
[22] = test system: LOX IMVI
[23] = test system: M14
[24] = test system: MCF7
[25] = test system: MDA-MB-231
[26] = test system: MDA-MB-435
[27] = test system: MDA-N
[28] = test system: MOLT-4
[29] = test system: Malme-3M
[30] = test system: NCI-H226
[31] = test system: NCI-H23
[32] = test system: NCI-H460
[33] = test system: NCI-H522
[34] = test system: NCI/ADR-RES
[35] = test system: OVCAR-3
[36] = test system: OVCAR-4
[37] = test system: OVCAR-5
[38] = test system: OVCAR-8
[39] = test system: PC-3
[40] = test system: RPMI-8226
[41] = test system: RXF 393
[42] = test system: SF-268
[43] = test system: SF-295
[44] = test system: SF-539
[45] = test system: SK-MEL-28
[46] = test system: SK-MEL-2
[47] = test system: SK-OV-3
[48] = test system: SN12C
[49] = test system: SNB-19
[50] = test system: SNB-75
[51] = test system: SW-620
[52] = test system: T47D
[53] = test system: TK-10
[54] = test system: U-251
[55] = test system: UACC-257
[56] = test system: UACC-62

Measured: GI50

O=C(N/N=C(COc1ccc(Cl)cc1)\N=C\c1cccnc1)c1ccncc1
inactive: [1] > 100 µM | [2] 52.6 µM | [3] > 100 µM | [4] > 100 µM | [5] > 100 µM | [6] > 100 µM | [7] > 100 µM | [8] 96.8 µM | [9] > 100 µM | [10] > 100 µM | [11] 88.1 µM | [12] > 100 µM | [14] > 100 µM | [15] > 100 µM | [16] 24.2 µM | [17] > 100 µM | [18] 23.7 µM | [19] > 100 µM | [20] 64.4 µM | [21] 71 µM | [22] > 100 µM | [23] > 100 µM | [24] > 100 µM | [25] > 100 µM | [26] 26.3 µM | [27] 25.5 µM | [28] 84.3 µM | [29] 49.7 µM | [30] 68.2 µM | [31] > 100 µM | [32] > 100 µM | [33] 23.5 µM | [34] 57.4 µM | [35] > 100 µM | [36] > 100 µM | [37] > 100 µM | [38] 89.1 µM | [39] > 100 µM | [40] 32.5 µM | [41] 77.3 µM | [42] 63.8 µM | [43] > 100 µM | [44] 57.3 µM | [45] > 100 µM | [46] > 100 µM | [47] > 100 µM | [48] > 100 µM | [49] > 100 µM | [50] 55.3 µM | [51] > 100 µM | [52] > 100 µM | [53] > 100 µM | [54] > 100 µM | [55] 99.5 µM | [56] 69 µM
85.9 µM: [13]
